Measurements reported in PubChem BioAssay AID1845206 (Molecular Pharmacology Branch, DTP, NCI, 2023).
Values joined by “and” are separate entries in the source; they are usually repeats but may differ in a detail not shown here. Equal entries are not always repeated. Active and inactive are the calls of the source. How the source made its calls: active means viability on the fitted dose curve at most 10% of control; inactive means the rest.

Test system: NCI-H1618 multicellular tumor spheroid viability
Experiment: Anticancer human tumor NCI-H1618 cell line growth inhibition;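 further: spheroids exposed to agents for 7 days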
Settings: for viability, T/C: stronger effect = lower value
Summary of the method: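 Complex tumor spheroids combined malignant cells with endothelial cells and mesenchymal stem cells. DNA-damaging drugs and DNA repair inhibitors were tested alone and in combination, at half-log dilutions down from clinical Cmax (top 10 microM if Cmax unknown), 0.25% DMSO final.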

[1] = curve of first compound, second compound 0.003 µM

## O=C(c1cc(Cc2n[nH]c(=O)c3ccccc23)ccc1F)N1CCN(C(=O)C2CC2)CC1 + Cn1nnc2c(C(N)=O)ncn2c1=O
Curve of first compound, second compound 1 µM
  IC50: 179 nM
Curve of first compound, second compound 3.16 µM
  IC50: < 94.9 nM
Curve of first compound, second compound 10 µM
  IC50: < 94.9 nM
Curve of first compound, second compound 31.6 µM
  IC50: < 94.9 nM
Curve of first compound, second compound 100 µM
  IC50: < 94.9 nM
Second compound 1 µM, first compound 0.0949 µM
  viability, T/C: 77.8%
Second compound 1 µM, first compound 0.3 µM
  viability, T/C: 22.5%
Second compound 1 µM, first compound 0.949 µM
  viability, T/C: 23.6%
Second compound 1 µM, first compound 3 µM
  viability, T/C: 20.8%
Second compound 1 µM, first compound 9.49 µM
  viability, T/C: 2.93%
Second compound 1 µM, first compound 30 µM
  viability, T/C: 5.71%
Second compound 3.16 µM, first compound 0.0949 µM
  viability, T/C: 19.4%
Second compound 3.16 µM, first compound 0.3 µM
  viability, T/C: 25.9%
Second compound 3.16 µM, first compound 0.949 µM
  viability, T/C: 23.3%
Second compound 3.16 µM, first compound 3 µM
  viability, T/C: 3.5%
Second compound 3.16 µM, first compound 9.49 µM
  viability, T/C: 24.2%
Second compound 3.16 µM, first compound 30 µM
  viability, T/C: 8.1%
Second compound 10 µM, first compound 0.0949 µM
  viability, T/C: 24.5%
Second compound 10 µM, first compound 0.3 µM
  viability, T/C: 23.7%
Second compound 10 µM, first compound 0.949 µM
  viability, T/C: 21.8%
Second compound 10 µM, first compound 3 µM
  viability, T/C: 20%
Second compound 10 µM, first compound 9.49 µM
  viability, T/C: 20.2%
Second compound 10 µM, first compound 30 µM
  viability, T/C: 5.57%
Second compound 31.6 µM, first compound 0.0949 µM
  viability, T/C: 24.9%
Second compound 31.6 µM, first compound 0.3 µM
  viability, T/C: 26.2%
Second compound 31.6 µM, first compound 0.949 µM
  viability, T/C: 21.8%
Second compound 31.6 µM, first compound 3 µM
  viability, T/C: 20.8%
Second compound 31.6 µM, first compound 9.49 µM
  viability, T/C: 20.5%
Second compound 31.6 µM, first compound 30 µM
  viability, T/C: 3.19%
Second compound 100 µM, first compound 0.0949 µM
  viability, T/C: 21.8%
Second compound 100 µM, first compound 0.3 µM
  viability, T/C: 23.7%
Second compound 100 µM, first compound 0.949 µM
  viability, T/C: 23%
Second compound 100 µM, first compound 3 µM
  viability, T/C: 21.4%
Second compound 100 µM, first compound 9.49 µM
  viability, T/C: 2.71%
Second compound 100 µM, first compound 30 µM
  viability, T/C: 2.88%

## COc1cc(C)[nH]c(=O)c1CN1CCc2c(Cl)cc(C(OC)C3COC3)c(Cl)c2C1=O (centres undefined)
Compound 0.0316 µM
  viability, T/C: 83.9% and 102% and 58.1%
Compound 0.1 µM
  outcome: inactive
  viability, T/C: 77.3% and 49.4%
Compound 0.316 µM
  outcome: inactive
  viability, T/C: 67.3% and 73.7%
Compound 1 µM
  viability, T/C: 76.1% and 83% and 91.4%
Compound 3.16 µM
  viability, T/C: 69% and 82.6% and 93.8%
Compound 10 µM
  viability, T/C: 65.9% and 85.6% and 65.3%
Curve of compound
  IC50: > 10000 nM

## [2H]c1nc(C)nc([2H])c1-c1cc(NC[C@@H](C)c2cccc3c(C(=O)NC)ccnc23)ncn1 + COc1cc2c(cc1O)CCNC21CSC2c3c(OC(C)=O)c(C)c4c(c3C(COC1=O)N1C(O)C3Cc5cc(C)c(OC)c(O)c5C(C21)N3C)OCO4
Curve of first compound, second compound 30 pM
  IC50: > 10000 nM
Curve of first compound, second compound 94.9 pM
  IC50: 249 nM
Curve of first compound, second compound 0.0003 µM
  IC50: < 31.6 nM
Curve of first compound, second compound 0.000949 µM
  IC50: < 31.6 nM
[1]
  IC50: < 31.6 nM
Second compound 30 pM, first compound 0.0316 µM
  viability, T/C: 101%
Second compound 30 pM, first compound 0.1 µM
  viability, T/C: 93.8%
Second compound 30 pM, first compound 0.316 µM
  viability, T/C: 87.8%
Second compound 30 pM, first compound 1 µM
  viability, T/C: 103%
Second compound 30 pM, first compound 3.16 µM
  viability, T/C: 93.9%
Second compound 30 pM, first compound 10 µM
  viability, T/C: 83.3%
Second compound 94.9 pM, first compound 0.0316 µM
  viability, T/C: 90.6%
Second compound 94.9 pM, first compound 0.1 µM
  viability, T/C: 61.4%
Second compound 94.9 pM, first compound 0.316 µM
  viability, T/C: 24.4%
Second compound 94.9 pM, first compound 1 µM
  viability, T/C: 55.4%
Second compound 94.9 pM, first compound 3.16 µM
  viability, T/C: 52.7%
Second compound 94.9 pM, first compound 10 µM
  viability, T/C: 55.7%
Second compound 0.0003 µM, first compound 0.0316 µM
  viability, T/C: 5.13%
Second compound 0.0003 µM, first compound 0.1 µM
  viability, T/C: 2.89%
Second compound 0.0003 µM, first compound 0.316 µM
  viability, T/C: 3.41%
Second compound 0.0003 µM, first compound 1 µM
  viability, T/C: 5.38%
Second compound 0.0003 µM, first compound 3.16 µM
  viability, T/C: 18.8%
Second compound 0.0003 µM, first compound 10 µM
  viability, T/C: 3.93%
Second compound 0.000949 µM, first compound 0.0316 µM
  viability, T/C: 3.46%
Second compound 0.000949 µM, first compound 0.1 µM
  viability, T/C: 3.49%
Second compound 0.000949 µM, first compound 0.316 µM
  viability, T/C: 3.75%
Second compound 0.000949 µM, first compound 1 µM
  viability, T/C: 4.59%
Second compound 0.000949 µM, first compound 3.16 µM
  viability, T/C: 4.63%
Second compound 0.000949 µM, first compound 10 µM
  viability, T/C: 4.69%
Second compound 0.003 µM, first compound 0.0316 µM
  viability, T/C: 2.53%
Second compound 0.003 µM, first compound 0.1 µM
  viability, T/C: 3.55%
Second compound 0.003 µM, first compound 0.316 µM
  viability, T/C: 4.4%
Second compound 0.003 µM, first compound 1 µM
  viability, T/C: 3.2%
Second compound 0.003 µM, first compound 3.16 µM
  viability, T/C: 1.87%
Second compound 0.003 µM, first compound 10 µM
  viability, T/C: 5.37%

## O=C(c1cc(Cc2n[nH]c(=O)c3ccccc23)ccc1F)N1CCN(C(=O)C2CC2)CC1 + CC[C@@]1(O)C(=O)OCc2c1cc1n(c2=O)Cc2cc3c(CN(C)C)c(O)ccc3nc2-1
[1]
  IC50: 1250 nM
Curve of first compound, second compound 0.00949 µM
  IC50: < 94.9 nM
Curve of first compound, second compound 0.03 µM
  IC50: < 94.9 nM
Curve of first compound, second compound 0.0949 µM
  IC50: < 94.9 nM
Curve of first compound, second compound 0.3 µM
  IC50: < 94.9 nM
Second compound 0.003 µM, first compound 0.0949 µM
  viability, T/C: 89%
Second compound 0.003 µM, first compound 0.3 µM
  viability, T/C: 84%
Second compound 0.003 µM, first compound 0.949 µM
  viability, T/C: 61.2%
Second compound 0.003 µM, first compound 3 µM
  viability, T/C: 15%
Second compound 0.003 µM, first compound 9.49 µM
  viability, T/C: 3.53%
Second compound 0.003 µM, first compound 30 µM
  viability, T/C: 3.79%
Second compound 0.00949 µM, first compound 0.0949 µM
  viability, T/C: 2.05%
Second compound 0.00949 µM, first compound 0.3 µM
  viability, T/C: 2.74%
Second compound 0.00949 µM, first compound 0.949 µM
  viability, T/C: 1.49%
Second compound 0.00949 µM, first compound 3 µM
  viability, T/C: 2.37%
Second compound 0.00949 µM, first compound 9.49 µM
  viability, T/C: 9.35%
Second compound 0.00949 µM, first compound 30 µM
  viability, T/C: 2.81%
Second compound 0.03 µM, first compound 0.0949 µM
  viability, T/C: 2.9%
Second compound 0.03 µM, first compound 0.3 µM
  viability, T/C: 1.36%
Second compound 0.03 µM, first compound 0.949 µM
  viability, T/C: 1.85%
Second compound 0.03 µM, first compound 3 µM
  viability, T/C: 1.67%
Second compound 0.03 µM, first compound 9.49 µM
  viability, T/C: 2.73%
Second compound 0.03 µM, first compound 30 µM
  viability, T/C: 2.96%
Second compound 0.0949 µM, first compound 0.0949 µM
  viability, T/C: 13.1%
Second compound 0.0949 µM, first compound 0.3 µM
  viability, T/C: 1.67%
Second compound 0.0949 µM, first compound 0.949 µM
  viability, T/C: 2.53%
Second compound 0.0949 µM, first compound 3 µM
  viability, T/C: 1.83%
Second compound 0.0949 µM, first compound 9.49 µM
  viability, T/C: 2.3%
Second compound 0.0949 µM, first compound 30 µM
  viability, T/C: 2.69%
Second compound 0.3 µM, first compound 0.0949 µM
  viability, T/C: 1.51%
Second compound 0.3 µM, first compound 0.3 µM
  viability, T/C: 1.22%
Second compound 0.3 µM, first compound 0.949 µM
  viability, T/C: 1.9%
Second compound 0.3 µM, first compound 3 µM
  viability, T/C: 1.37%
Second compound 0.3 µM, first compound 9.49 µM
  viability, T/C: 1.77%
Second compound 0.3 µM, first compound 30 µM
  viability, T/C: 3.42%
